Assay: Plasma pharmacokinetics of the parent compound after a single oral dose of prodrug
Type: in vivo
Conditions: single oral dose 10 mg/kg, fasted male Sprague Dawley rats; plasma analyzed for the parent compound; study duration 8 h
Procedure: Plasma pharmacokinetics of compounds was determined using three male Sprague Dawley rats following a single oral dose administration. All animals were placed in a rat metabolic cage, isolated, and fasted approximately 15 hours prior to dosing. Identifying markers were placed on each animal. Each animal was weighed prior to dose administration. Animals were administered orally with a solution formulation of test compound either in water or a combination of water/propylene glycol, at a dose of 10 mg/kg. Gavage needles were attached to syringes and filled with appropriate amount of test article to be dosed. Blood samples (approximately 500 μL) were collected from three rats at pre-dose (time 0), 0.5, 1, 2, 4, 8, 12 and 24 hr, respectively, depending on study duration. Samples were collected into labeled micro centrifuge tubes containing (heparin solution) as an anticoagulant. Plasma was immediately harvested from the blood by centrifugation at 14,000 rpm for 3 min at 4° C., and stored below −70° C. until bioanalysis. Individual plasma samples were analyzed for the parent compound, 3-[2-(4-carbamimidoyl-phenylcarbamoyl)-5-methoxy-4-vinyl-phenyl]-6-(cyclopropylmethyl-carbamoyl)-pyridine-2-carboxylic acid. As shown in Table-1, the test compounds yielded varying degrees of exposure to the parent compound. The test compounds generally provided for improved bioavailability of the parent compound as compared to dosing of the parent compound in aqueous solutions.

Structure (SMILES) | AUC0-last hour (area under the curve)
C=Cc1cc(C(=O)Nc2ccc(C(=N)NC(=O)OCCCCCC)cc2)c(-c2ccc(C(=O)NCC3CC3)nc2C(=O)OCOC(=O)OC(C)C)cc1OC [Compound 72a, ((isopropoxycarbonyl)oxy)methyl 6-((cyclopropylmethyl)carbamoyl)-3-(2-((4-(N-((hexyloxy)carbonyl)carbamimidoyl)phenyl)carbamoyl)-5-methoxy-4-vinylphenyl)picolinate] | B (B = 1,001-10,000 ng/mL)
C=Cc1cc(C(=O)Nc2ccc(C(=N)NC(=O)OCCCCCC)cc2)c(-c2ccc(C(=O)NCC3CC3)nc2C(=O)OC(C)OC(=O)OC(C)(C)C)cc1OC (centres unmarked) [Compound 41a, 1-((tert-butoxycarbonyl)oxy)ethyl 6-((cyclopropylmethyl)carbamoyl)-3-(2-((4-(N-((hexyloxy)carbonyl)carbamimidoyl)phenyl)carbamoyl)-5-methoxy-4-vinylphenyl)picolinate] | B (B = 1,001-10,000 ng/mL)
C=Cc1cc(C(=O)Nc2ccc(C(=N)N)cc2)c(-c2ccc(C(=O)NCC3CC3)nc2C(=O)O)cc1OC [Compound 23e, 3-(2-((4-carbamimidoylphenyl)carbamoyl)-5-methoxy-4-vinylphenyl)-6-((cyclopropylmethyl)carbamoyl)picolinic acid] | B (B = 1,001-10,000 ng/mL)
C=Cc1cc(C(=O)Nc2ccc(C(=N)NC(=O)OCCO)cc2)c(-c2ccc(C(=O)NCC3CC3)nc2C(=O)OC(C)OC(=O)C(C)C)cc1OC (centres unmarked) [Compound 85d, 1-(isobutyryloxy)ethyl 6-((cyclopropylmethyl)carbamoyl)-3-(2-((4-(N-((2-hydroxyethoxy)carbonyl)carbamimidoyl)phenyl)carbamoyl)-5-methoxy-4-vinylphenyl)picolinate] | A (A = 0-1,000 ng/mL)
C=Cc1cc(C(=O)Nc2ccc(C(=N)NC(=O)OCCCCCC)cc2)c(-c2ccc(C(=O)NCC3CC3)nc2C(=O)O)cc1OC [Compound 24c, 6-((cyclopropylmethyl)carbamoyl)-3-(2-((4-(N-((hexyloxy)carbonyl)carbamimidoyl)phenyl)carbamoyl)-5-methoxy-4-vinylphenyl)picolinic acid] | A (A = 0-1,000 ng/mL)
C=Cc1cc(C(=O)Nc2ccc(C(=N)NC(=O)OCC)cc2)c(-c2ccc(C(=O)NCC3CC3)nc2C(=O)OC(C)OC(=O)OC(C)C)cc1OC (centres unmarked) [Compound 43a, 1-((isopropoxycarbonyl)oxy)ethyl 6-((cyclopropylmethyl)carbamoyl)-3-(2-((4-(N-(ethoxycarbonyl)carbamimidoyl)phenyl)carbamoyl)-5-methoxy-4-vinylphenyl)picolinate] | C (C >10,000 ng/mL)
C=Cc1cc(C(=O)Nc2ccc(C(=N)NC(=O)OCCCCCO)cc2)c(-c2ccc(C(=O)NCC3CC3)nc2C(=O)OC(C)OC(=O)C(C)C)cc1OC (centres unmarked) [Compound 94e, 1-(isobutyryloxy)ethyl 6-((cyclopropylmethyl)carbamoyl)-3-(2-((4-(N-(((5-hydroxypentyl)oxy)carbonyl)carbamimidoyl)phenyl)carbamoyl)-5-methoxy-4-vinylphenyl)picolinate] | B (B = 1,001-10,000 ng/mL)
C=Cc1cc(C(=O)Nc2ccc(C(=N)NC(=O)OCCN3CCOCC3)cc2)c(-c2ccc(C(=O)NCC3CC3)nc2C(=O)OC(C)OC(=O)C(C)C)cc1OC (centres unmarked) [Compound 75c, 1-(isobutyryloxy)ethyl 6-((cyclopropylmethyl)carbamoyl)-3-(5-methoxy-2-((4-(N-((2-morpholinoethoxy)carbonyl)carbamimidoyl)phenyl)carbamoyl)-4-vinylphenyl)picolinate] | B (B = 1,001-10,000 ng/mL)
C=Cc1cc(C(=O)Nc2ccc(C(N)=NO)cc2)c(-c2ccc(C(=O)NCC3CC3)nc2C(=O)O)cc1OC [Compound 9c, 6-((cyclopropylmethyl)carbamoyl)-3-(2-((4-(N′-hydroxycarbamimidoyl)phenyl)carbamoyl)-5-methoxy-4-vinylphenyl)picolinic acid] | A (A = 0-1,000 ng/mL)
C=Cc1cc(C(=O)Nc2ccc(C(=N)NC(=O)OC(C)OC(C)=O)cc2)c(-c2ccc(C(=O)NCC3CC3)nc2C(=O)OC(C)OC(=O)C(C)C)cc1OC (centres unmarked) [Compound 48b, 1-(isobutyryloxy)ethyl 3-(2-((4-(N-((1-acetoxyethoxy)carbonyl)carbamimidoyl)phenyl)carbamoyl)-5-methoxy-4-vinylphenyl)-6-((cyclopropylmethyl)carbamoyl)picolinate] | C (C >10,000 ng/mL)
C=Cc1cc(C(=O)Nc2ccc(C(=N)NC(=O)OC3COCOC3)cc2)c(-c2ccc(C(=O)NCC3CC3)nc2C(=O)OC(C)OC(=O)C(C)C)cc1OC (centres unmarked) [Compound 65c, 1-(isobutyryloxy)ethyl 3-(2-((4-(N-(((1,3-dioxan-5-yl)oxy)carbonyl)carbamimidoyl)phenyl)carbamoyl)-5-methoxy-4-vinylphenyl)-6-((cyclopropylmethyl)carbamoyl)picolinate] | B (B = 1,001-10,000 ng/mL)
C=Cc1cc(C(=O)Nc2ccc(C(=N)NC(=O)OCCCCCC)cc2)c(-c2ccc(C(=O)NCC3CC3)nc2C(=O)OCOC(=O)[C@@H](N)CC(C)C)cc1OC [Compound 50d, (S)-((2-amino-4-methylpentanoyl)oxy)methyl 6-((cyclopropylmethyl)carbamoyl)-3-(2-((4-(N-((hexyloxy)carbonyl)carbamimidoyl)phenyl)carbamoyl)-5-methoxy-4-vinylphenyl)picolinate] | B (B = 1,001-10,000 ng/mL)
C=Cc1cc(C(=O)Nc2ccc(C(=N)NC(=O)OCCCCCC)cc2)c(-c2ccc(C(=O)NCC3CC3)nc2C(=O)OC(C)OC(=O)[C@@H](N)C(C)C)cc1OC.Cl (stereo partly drawn) [Compound 59b, 1-(((S)-2-amino-3-methylbutanoyl)oxy)ethyl 6-((cyclopropylmethyl)carbamoyl)-3-(2-((4-(N-((hexyloxy)carbonyl)carbamimidoyl)phenyl)carbamoyl)-5-methoxy-4-vinylphenyl)picolinate Hydrochloride] | B (B = 1,001-10,000 ng/mL)
C=Cc1cc(C(=O)Nc2ccc(C(=N)NC(=O)OCCCCCC)cc2)c(-c2ccc(C(=O)NCC3CC3)nc2C(=O)OC(C)OC(=O)OC2CCCCC2)cc1OC (centres unmarked) [Compound 70d, 1-(((cyclohexyloxy)carbonyl)oxy)ethyl 6-((cyclopropylmethyl)carbamoyl)-3-(2-((4-(N-((hexyloxy)carbonyl)carbamimidoyl)phenyl)carbamoyl)-5-methoxy-4-vinylphenyl)picolinate] | B (B = 1,001-10,000 ng/mL)
C=Cc1cc(C(=O)Nc2ccc(C(=N)N)cc2)c(-c2ccc(C(=O)NCC3CC3)nc2C(=O)OC[C@H](C)OC(=O)[C@@H](N)C(C)C)cc1OC (single isomer, unassigned) [Compound 18f] | A (A = 0-1,000 ng/mL)
C=Cc1cc(C(=O)Nc2ccc(C(=N)NC(=O)OC[C@@H]3C[C@@H](O)CC(=O)O3)cc2)c(-c2ccc(C(=O)NCC3CC3)nc2C(=O)OC(C)OC(=O)C(C)C)cc1OC (stereo partly drawn) [Compound 73d, 1-(isobutyryloxy)ethyl 6-((cyclopropylmethyl)carbamoyl)-3-(2-((4-(N-((((2S,4R)-4-hydroxy-6-oxotetrahydro-2H-pyran-2-yl)methoxy)carbonyl)carbamimidoyl)phenyl)carbamoyl)-5-methoxy-4-vinylphenyl)picolinate] | A (A = 0-1,000 ng/mL)
C=Cc1cc(C(=O)Nc2ccc(C(=N)NC(=O)OC(C)OC(=O)C(C)C)cc2)c(-c2ccc(C(=O)NCC3CC3)nc2C(=O)OCOC(=O)[C@@H](N)C(C)C)cc1OC (stereo partly drawn) [Compound 64b, (((S)-2-amino-3-methylbutanoyl)oxy)methyl 6-((cyclopropylmethyl)carbamoyl)-3-(2-((4-(N-((1-(isobutyryloxy)ethoxy)carbonyl)carbamimidoyl)phenyl)carbamoyl)-5-methoxy-4-vinylphenyl)picolinate] | B (B = 1,001-10,000 ng/mL)

Same assay, conditions: single oral dose 10 mg/kg, fasted male Sprague Dawley rats; plasma analyzed for the parent compound; study duration 12 h

Structure (SMILES) | AUC0-last hour (area under the curve)
C=Cc1cc(C(=O)Nc2ccc(C(=N)NC(=O)OCC)cc2)c(-c2ccc(C(=O)NCC3CC3)nc2C(=O)OCOC(=O)[C@@H](N)C(C)C)cc1OC [Compound 32c, (S)-((2-amino-3-methylbutanoyl)oxy)methyl 6-((cyclopropylmethyl)carbamoyl)-3-(2-((4-(N-(ethoxycarbonyl)carbamimidoyl)phenyl)carbamoyl)-5-methoxy-4-vinylphenyl)picolinate] | B (B = 1,001-10,000 ng/mL)
C=Cc1cc(C(=O)Nc2ccc(C(=N)NC(=O)OC(C)OC(C)=O)cc2)c(-c2ccc(C(=O)NCC3CC3)nc2C(=O)O)cc1OC (centres unmarked) [Compound 23f, 3-(2-((4-(N-((1-acetoxyethoxy)carbonyl)carbamimidoyl)phenyl)carbamoyl)-5-methoxy-4-vinylphenyl)-6-((cyclopropylmethyl)carbamoyl)picolinic acid] | B (B = 1,001-10,000 ng/mL)
C=Cc1cc(C(=O)Nc2ccc(C(=N)NC(=O)OCCCCCC)cc2)c(-c2ccc(C(=O)NCC3CC3)nc2C(=O)OCOC(=O)[C@@H](N)C(C)C)cc1OC [Compound 31b, (S)-((2-amino-3-methylbutanoyl)oxy)methyl 6-((cyclopropylmethyl)carbamoyl)-3-(2-((4-(N-((hexyloxy)carbonyl)carbamimidoyl)phenyl)carbamoyl)-5-methoxy-4-vinylphenyl)picolinate] | B (B = 1,001-10,000 ng/mL)

— patent US20210198204A1, “PRODRUGS OF KALLIKREIN INHIBITORS” (BioCryst Pharmaceuticals, Inc., priority 2016, published 2021)
